Patent US6355799B1, “Substituted benzene compounds, process for their preparation, and herbicidal and defoliant compositions containing them” (ISK Americas Incorporated, priority 1997, dated 2002)

Key:
Format in all cases: in vivo
[1] = test system: velvetleaf (Abutilon theophrasti, ABUTH); assay: Pre-emerge test, greenhouse herbicide activity screening; settings: rated 14 days after application, 0 = no damage, 100 = complete death
Summary of the method: (§1)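 Herbicidal damage is scored 0 (none) to 100 (complete plant death) two weeks after a simulated field spray. Rates span 15–1000 g ai/ha, delivered in acetone at 187 l/ha. For post-emergence treatments, plants have 2–3 leaves and the spray carries 0.25% v/v non-ionic surfactant.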

[2] = test system: common ragweed (Ambrosia artemisizfolia L., AMBEL); assay: as above; settings: rated 14 days after application, 0 = no damage, 100 = complete death
Summary of the method: as §1

[3] = test system: green foxtail (Setaria viridis, SETVI); assay: as above; settings: rated 14 days after application, 0 = no damage, 100 = complete death
Summary of the method: as §1

[4] = test system: sicklepod (Cassia obtusifolia, CASOB); assay: as above; settings: rated 14 days after application, 0 = no damage, 100 = complete death
Summary of the method: as §1

[5] = test system: ivyleaf morningglory (Ipomoea hederacea, IPOHE); assay: as above; settings: rated 14 days after application, 0 = no damage, 100 = complete death
Summary of the method: as §1

[6] = test system: lambsquarters (Chenopodium album, CHEAL); assay: as above; settings: rated 14 days after application, 0 = no damage, 100 = complete death
Summary of the method: as §1

[7] = test system: large crabgrass (Digitaria sanguinalis, DIGSA); assay: as above; settings: rated 14 days after application, 0 = no damage, 100 = complete death
Summary of the method: as §1

[8] = test system: johnsongrass (Sorghum halepense, SORHA); assay: as above; settings: rated 14 days after application, 0 = no damage, 100 = complete death
Summary of the method: as §1

[9] = test system: barnyardgrass (Echinochloa crus-galli, ECHCG); assay: as above; settings: rated 14 days after application, 0 = no damage, 100 = complete death
Summary of the method: as §1

[10] = test system: upland rice (Oryza sp., var. Tebonnet, RICE); assay: Pre-emerge test, crop safety; settings: rated 14 days after application, 0 = no damage, 100 = complete death
Summary of the method: (§2)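 Sandy loam pots; pre-emerge: sown 1 d pre-spray, surface-watered after, then bottom-watered. Post-emerge: sown 8–21 d before, 2–3 leaf stage, + 0.25% v/v NIS, bottom-watered. Acetone, 187 l/ha track spray, 15–1000 g ai/ha. 0–100 injury score, day 14.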

[11] = test system: field corn (Zea mays L., var. Dekalb 535, CORN); assay: Pre-emerge test, crop safety; settings: rated 14 days after application, 0 = no damage, 100 = complete death
Summary of the method: as §2

[12] = test system: velvetleaf (Abutilon theophrasti, ABUTH); assay: Post-emerge test, greenhouse herbicide activity screening; settings: post-emerge, 14 days after application, rating scale 0-100
Summary of the method: (§3)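 Applied at 15–1000 g ai/ha from acetone in 187 l/ha spray volume. Post-emergence applications included 0.25% v/v non-ionic surfactant and reached plants sown 8–21 days before. Pre-emergence applications were incorporated by surface watering. Efficacy or crop damage was rated on a 0–100 scale after 14 days.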

[13] = test system: common ragweed (Ambrosia artemisizfolia L., AMBEL); assay: as above; settings: post-emerge, 14 days after application, rating scale 0-100
Summary of the method: as §3

[14] = test system: sicklepod (Cassia obtusifolia, CASOB); assay: as above; settings: post-emerge, 14 days after application, rating scale 0-100
Summary of the method: as §3

[15] = test system: ivyleaf morningglory (Ipomoea hederacea, IPOHE); assay: as above; settings: post-emerge, 14 days after application, rating scale 0-100
Summary of the method: as §3

[16] = test system: lambsquarters (Chenopodium album, CHEAL); assay: as above; settings: post-emerge, 14 days after application, rating scale 0-100
Summary of the method: as §3

[17] = test system: large crabgrass (Digitaria sanguinalis, DIGSA); assay: as above; settings: post-emerge, 14 days after application, rating scale 0-100
Summary of the method: as §3

[18] = test system: redroot pigweed (Amaranthus retroflexus, AMARE); assay: as above; settings: post-emerge, 14 days after application, rating scale 0-100
Summary of the method: as §3

[19] = test system: johnsongrass (Sorghum halepense, SORHA); assay: as above; settings: post-emerge, 14 days after application, rating scale 0-100
Summary of the method: as §3

[20] = test system: barnyardgrass (Echinochloa crus-galli, ECHCG); assay: as above; settings: post-emerge, 14 days after application, rating scale 0-100
Summary of the method: as §3

[21] = test system: upland rice (Oryza sp., var. Tebonnet, RICE); assay: Post-emerge test, crop safety; settings: post-emerge, 14 days after application, rating scale 0-100
Summary of the method: as §1

[22] = test system: field corn (Zea mays L., var. Dekalb 535, CORN); assay: Post-emerge test, crop safety; settings: post-emerge, 14 days after application, rating scale 0-100
Summary of the method: as §1

[23] = test system: redroot pigweed (Amaranthus retroflexus, AMARE); assay: Pre-emerge test, greenhouse herbicide activity screening; settings: rated 14 days after application, 0 = no damage, 100 = complete death
Summary of the method: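 Rating: 0–100 visual injury, 14 DAA. Application: acetone, 187 l/ha, 15–1000 g ai/ha, flat-fan track sprayer with nozzle 40–45 cm above soil or canopy. Post-emerge runs used 0.25% v/v surfactant on 2–3 leaf plants.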

**Q.** What does the source list for `COc1c(Cl)cc(F)c(-n2c(=O)cc(C(F)(F)F)n(C)c2=O)c1NC(=O)c1cccnc1` [2-98]?
**A.** Pre-emerge Herbicidal Activity, phytotoxicity rating (0-100), ABUTH ([1]; 63 g ai/ha): 100; Pre-emerge Herbicidal Activity, phytotoxicity rating (0-100), ABUTH ([1]; 250 g ai/ha): 100; Pre-emerge Herbicidal Activity, phytotoxicity rating (0-100), AMBEL ([2]; 63 g ai/ha): 100; Pre-emerge Herbicidal Activity, phytotoxicity rating (0-100), AMBEL ([2]; 250 g ai/ha): 100; Pre-emerge Herbicidal Activity, phytotoxicity rating (0-100), SETVI ([3]; 63 g ai/ha): 80; Pre-emerge Herbicidal Activity, phytotoxicity rating (0-100), SETVI ([3]; 250 g ai/ha): 100; Pre-emerge Herbicidal Activity, phytotoxicity rating (0-100), CASOB ([4]; 63 g ai/ha): 100; Pre-emerge Herbicidal Activity, phytotoxicity rating (0-100), CASOB ([4]; 250 g ai/ha): 100; Pre-emerge Herbicidal Activity, phytotoxicity rating (0-100), IPOHE ([5]; 63 g ai/ha): 100; Pre-emerge Herbicidal Activity, phytotoxicity rating (0-100), IPOHE ([5]; 250 g ai/ha): 100; Pre-emerge Herbicidal Activity, phytotoxicity rating (0-100), CHEAL ([6]; 63 g ai/ha): 100; Pre-emerge Herbicidal Activity, phytotoxicity rating (0-100), CHEAL ([6]; 250 g ai/ha): 100; Pre-emerge Herbicidal Activity, phytotoxicity rating (0-100), DIGSA ([7]; 63 g ai/ha): 40; Pre-emerge Herbicidal Activity, phytotoxicity rating (0-100), DIGSA ([7]; 250 g ai/ha): 95; Pre-emerge Herbicidal Activity, phytotoxicity rating (0-100), SORHA ([8]; 63 g ai/ha): 30; Pre-emerge Herbicidal Activity, phytotoxicity rating (0-100), SORHA ([8]; 250 g ai/ha): 95; Pre-emerge Herbicidal Activity, phytotoxicity rating (0-100), ECHCG ([9]; 63 g ai/ha): 30; Pre-emerge Herbicidal Activity, phytotoxicity rating (0-100), ECHCG ([9]; 250 g ai/ha): 100; Pre-emerge phytotoxicity rating (0-100), crop damage, RICE ([10]; 63 g ai/ha): 60; Pre-emerge phytotoxicity rating (0-100), crop damage, RICE ([10]; 250 g ai/ha): 90; Pre-emerge phytotoxicity rating (0-100), crop damage, CORN ([11]; 63 g ai/ha): 70; Pre-emerge phytotoxicity rating (0-100), crop damage, CORN ([11]; 250 g ai/ha): 90; phytotoxicity rating ABUTH ([12]; 63 g ai/ha): 100; phytotoxicity rating ABUTH ([12]; 250 g ai/ha): 100; phytotoxicity rating AMBEL ([13]; 63 g ai/ha): 80; phytotoxicity rating AMBEL ([13]; 250 g ai/ha): 100; phytotoxicity rating CASOB ([14]; 63 g ai/ha): 100; phytotoxicity rating CASOB ([14]; 250 g ai/ha): 100; phytotoxicity rating IPOHE ([15]; 63 g ai/ha): 100; phytotoxicity rating IPOHE ([15]; 250 g ai/ha): 100; phytotoxicity rating CHEAL ([16]; 63 g ai/ha): 70; phytotoxicity rating CHEAL ([16]; 250 g ai/ha): 90; phytotoxicity rating DIGSA ([17]; 63 g ai/ha): 0; phytotoxicity rating DIGSA ([17]; 250 g ai/ha): 50; phytotoxicity rating AMARE ([18]; 63 g ai/ha): 75; phytotoxicity rating AMARE ([18]; 250 g ai/ha): 100; phytotoxicity rating SORHA ([19]; 63 g ai/ha): 0; phytotoxicity rating SORHA ([19]; 250 g ai/ha): 90; phytotoxicity rating ECHCG ([20]; 63 g ai/ha): 0; phytotoxicity rating ECHCG ([20]; 250 g ai/ha): 20; phytotoxicity rating RICE ([21]; 63 g ai/ha): 40; phytotoxicity rating RICE ([21]; 250 g ai/ha): 90; phytotoxicity rating CORN ([22]; 63 g ai/ha): 20; phytotoxicity rating CORN ([22]; 250 g ai/ha): 90; Pre-emerge Herbicidal Activity, phytotoxicity rating (0-100), AMARE ([23]; 63 g ai/ha): 100; Pre-emerge Herbicidal Activity, phytotoxicity rating (0-100), AMARE ([23]; 250 g ai/ha): 100
